Assay results published in paper PMC5520195 (Acta Pharmacologica Sinica, 2017).

Columns and labels:
[1] = Plasma pharmacokinetics of DOX after iv administration; format: in vivo; conditions: DOX in plasma, BALB/c mice, 5 mg DOX/kg
[2] = tested on: 4T1.2 mouse breast cancer cells; experiment: MTT cytotoxicity assay; format: cell-based; conditions: 4T1.2 cells, 72 h

COc1cccc2c1C(=O)c1c(O)c3c(c(O)c1C2=O)C[C@@](O)(C(=O)CO)C[C@@H]3O[C@H]1C[C@H](N)[C@H](O)[C@H](C)O1 [DOX, doxorubicin]
AUC0–infinity [1]: 2.93 µg·h/mL
CL [1]: 1.73 L/h/kg
Cmax [1]: 6.27 µg/mL
cytotoxicity (MTT) [2]: cytotoxic effect on tumor cells in a concentration-dependent manner
